Laboratory results as given in patent US12010996B2, “Tris-substituted biguanide compounds and their uses” (priority 2018, dated 2024).
≈ marks a conversion by molar mass, not a printed value.

Tests used:
Test in all cases: Antibacterial effectiveness testing, growth inhibition in BHI broth (absorbance 600 nm)
Details in all cases: 37° C., 24 h
S. aeureus, ATCC 6538 = assay type: cell-based, S. aureus
Method: (§1) The antibacterial effectiveness testing was run against 7 strains of bacteria using the following protocol. Protocol: […] Bacteria (either E. coli or P. aeruginosa or S. aureus or […] or K. pneumonia or A. baumanni or C. albicans) are added to all well except the control and incubated at 37° C. for 24 h. The absorbance was read at 600 nm. MIC90 was calculated as the concentration at which 90% growth inhibition is noticed. N=4 replicates for each compound and bacteria.

C. albicans, ATCC1-0231 = assay type: cell-based
Method: as §1

E. coli, ATCC-8739 = assay type: cell-based
Method: as §1

S. marcenes, ATCC-21639 = assay type: cell-based
Method: as §1

P. aeruginosa, ATCC-9027 = assay type: cell-based
Method: (§2) The antibacterial effectiveness testing was run against 7 strains of bacteria using the following protocol. […] Bacteria (either E. coli or P. aeruginosa or S. aureus or […] or K. pneumonia or A. baumanni or C. albicans) are added to all well except the control and incubated at 37° C. for 24 h. The absorbance was read at 600 nm. MIC90 was calculated as the concentration at which 90% growth inhibition is noticed. N=4 replicates for each compound and bacteria.

A. baumanni-ATCC-19606 = assay type: cell-based
Method: as §2

K. pneumonia, ATCC-18804 = assay type: cell-based
Method: as §2

[1] = * BHI not containing acetic acid/BSA, beginning 1000 μg/mL suspension
[2] = no asterisk (BHI containing acetic acid/BSA), beginning 1000 μg/mL suspension
[3] = no asterisk, beginning 1000 μg/mL in DMSO/Water

Structure (SMILES) | MIC (S. aeureus, ATCC 6538) (S. aeureus, ATCC 6538; [1]) [µg/mL] | MIC (S. aeureus, ATCC 6538) (S. aeureus, ATCC 6538; [2]) [µg/mL] | MIC (S. aeureus, ATCC 6538) (S. aeureus, ATCC 6538; [3]) [µg/mL] | MIC (C. albicans, ATCC1-0231) (C. albicans, ATCC1-0231; [2]) [µg/mL] | MIC (C. albicans, ATCC1-0231) (C. albicans, ATCC1-0231; [3]) [µg/mL] | MIC90 (E. coli, ATCC-8739) (E. coli, ATCC-8739; [1]) [µg/mL] | MIC90 (E. coli, ATCC-8739) (E. coli, ATCC-8739; [2]) [µg/mL] | MIC90 (E. coli, ATCC-8739) (E. coli, ATCC-8739; [3]) [µg/mL] | MIC (S. marcenes, ATCC-21639) (S. marcenes, ATCC-21639; [1]) [µg/mL] | MIC (S. marcenes, ATCC-21639) (S. marcenes, ATCC-21639; [2]) [µg/mL] | MIC (S. marcenes, ATCC-21639) (S. marcenes, ATCC-21639; [3]) [µg/mL] | MIC90 (P. aeruginosa, ATCC-9027) (P. aeruginosa, ATCC-9027; [1]) [µg/mL] | MIC90 (P. aeruginosa, ATCC-9027) (P. aeruginosa, ATCC-9027; [2]) [µg/mL] | MIC90 (P. aeruginosa, ATCC-9027) (P. aeruginosa, ATCC-9027; [3]) [µg/mL] | MIC (A. baumanni-ATCC-19606) (A. baumanni-ATCC-19606; [1]) [µg/mL] | MIC (A. baumanni-ATCC-19606) (A. baumanni-ATCC-19606; [2]) [µg/mL] | MIC (A. baumanni-ATCC-19606) (A. baumanni-ATCC-19606; [3]) [µg/mL] | MIC (K. pneumonia, ATCC-18804) (K. pneumonia, ATCC-18804; [2]) [µg/mL] | MIC (K. pneumonia, ATCC-18804) (K. pneumonia, ATCC-18804; [3]) [µg/mL] | MIC (K. pneumonia, ATCC-18804) (K. pneumonia, ATCC-18804; [1]) [µg/mL]
N=C(NCCN(CCNC(=N)NC(=N)Nc1ccc(Cl)cc1)CCNC(=N)NC(=N)Nc1ccc(Cl)cc1)NC(=N)Nc1ccc(Cl)cc1 [USD 18] | 0.78 (≈ 1.07 µM) | 0.76 (≈ 1.04 µM) | 0.76 (≈ 1.04 µM) | 6.25 (≈ 8.56 µM) | 3.12 (≈ 4.27 µM) | 3.12 (≈ 4.27 µM) | 3.15 (≈ 4.31 µM) | 6.25 (≈ 8.56 µM) | 3.12 (≈ 4.27 µM) | 50 (≈ 68.5 µM) | 12.5 (≈ 17.1 µM) | 6.25 (≈ 8.56 µM) | 0.76 (≈ 1.04 µM) | 0.76 (≈ 1.04 µM) | 3.12 (≈ 4.27 µM) | 6.25 (≈ 8.56 µM) | 0.39 (≈ 0.534 µM) | 12.5 (≈ 17.1 µM) | 6.25 (≈ 8.56 µM) | –
N=C(NCCN(CCNC(=N)NC(=N)Nc1ccc(C(F)(F)F)cc1)CCNC(=N)NC(=N)Nc1ccc(C(F)(F)F)cc1)NC(=N)Nc1ccc(C(F)(F)F)cc1 [USD 19] | 3.12 (≈ 3.76 µM) | 1.5 (≈ 1.81 µM) | – | 6.25 (≈ 7.52 µM) | – | 12.5 (≈ 15 µM) | 315 (≈ 379 µM) | – | 3.12 (≈ 3.76 µM) | 100 (≈ 120 µM) | – | 12.5 (≈ 15 µM) | 3.15 (≈ 3.79 µM) | – | 3.12 (≈ 3.76 µM) | 1.5 (≈ 1.81 µM) | – | 25 (≈ 30.1 µM) | – | –
Cl.Cl.N=C(NCCCCCCNC(=N)NC(=N)Nc1ccc(Cl)cc1)NC(=N)Nc1ccc(Cl)cc1 [USD 20, chlorhexidine dihydrochloride, reference compound] | 0.78 | – | 0.76 | – | 12.5 | 0.78 | – | 1.5 | 6.25 | – | 3.25 | 25 | – | 1.5 | 25 | – | 0.39 | – | 3.12 | 25
